Values quoted from earlier work in patent publication US20050277634A1, “Liquid composition for veterinary medicine and process for the preparation and use thereof” (Boehringer Ingelheim Vetmedica GmbH, priority 2004, published 2005).

Conditions: injectable solution, subcutaneous administration

SMILES: Cc1cnc(NC(=O)C2=C(O)c3ccccc3S(=O)(=O)N2C)s1 [meloxicam]
- Bioavailability: fully bioavailable
- Time to maximum plasma concentrations: after a few hours
